Results published in patent publication US5498627A, “Octahydro-2-naphthalenecarboxylic acid derivative, its production and use” (Takeda Chemical Industries, Ltd., priority 1994, dated 1996).
≈ marks a conversion by molar mass, not a printed value.

Legend:
[1] = molecular target: T1, Farnesyltransferase (Rattus norvegicus, UniProt Q02293+Q04631); experiment: Farnesyltransferase-inhibitory test (FT Assay Kit, SPA); type: biochemical; conditions: crude enzyme from rat brains; biotin-modified human lamin B C-terminal peptide, 3H-farnesylpyrophosphate; 37° C., 1 hour; read-out: concentration inhibiting farnesyltransferase activity by 50% (converted)
T1 construct: Farnesyltransferase was prepared from rat brains; from tissue; host or cells: brain of male SD rats, 6 weeks old (Charles River); dialysed 30-50% ammonium sulfate fraction, crude enzyme solution
Method: Farnesyltransferase was prepared from rat brains according to the method of Y. Reiss et al. (Cell 62, 81 (1990)) and all of the following procedures were performed at 4° C. That is, brains were removed from SD rats (male, 6 weeks old, Charles River) and sliced with a pair of scissors. Then 50 mM tris-hydrochloric acid buffer (pH 7.5)(2 ml per brain) containing 1 mM EDTA, 1 mM EGTA, 0.2 mM phenylmethylsulfonyl fluoride and 0.1 mM leupeptin was added. The mixture was homogenized with a Teflon homogenizer (manufactured by Hamada Rika, Japan) in ice. The extract was centrifuged at 60,000×g for 70 minutes. From the resulting supernatant, the precipitate fraction from 30 to 50 W/V % concentration of ammonium sulfate was recovered, and dialyzed overnight against 20 mM tris-hydrochloric acid buffer (pH 7.5) containing 1 mM dithiothreitol and 20 μM zinc chloride. The dialysed solution was centrifuged at 15,000×g for 10 minutes. […]
Farnesyltransferase activity was determined using FT Assay Kit (manufactured by Amersham) as follows. […] The radioactivity produced by attachment of the ^3 H-farnesylated peptide to the SPA beads was measured with a scintillation counter to determine the amount of the ^3 H-farnesylated peptide. The farnesyltransferase-inhibitory activity of the compound TAN-1813 was calculated from the counts in the presence and absence of the compound TAN-1813.

[2] = system: NIH3T3/K-ras cells; experiment: Cell growth-inhibitory test (MTT); type: cell-based; conditions: Mus musculus, NIH3T3, 72 h, 3 days incubation, read-out: concentration inhibiting the growth of NIH3T3/K-ras cells by 50%
Method: The cell growth-inhibitory activity of the compound TAN-1813 was determined according to a modified method of Mosmann (Journal of Immunological Methods 65, 55 (1983) ) by using a K-ras transformant (NIH3T3/K-ras) of mouse embryonic fibroblast strain NIH3T3. That is, NIH3T3/K-ras cells were suspended in a medium at a cell density of 3×10^4 /ml. The suspension (0.1 ml per well) was dispensed into each well of a 96-well flat-bottomed plate (manufactured by Nunc) containing a solution (10 μl) of varying concentrations of the compound TAN-1813 dissolved in phosphate-buffered saline (PBS). The medium was Dulbecco modified Eagle's minimum essential medium (Whittaker Bioproducts, U.S.A.) containing 10 V/V % fetal calf serum (FCS, Whittaker Bioproducts, U.S.A.). The above plate was incubated for 3 days at 37° C. and 5% CO2. Then, 25 μl of tetrazolium salt MTT (Sigma, U.S.A.) solution (5 mg/ml) dissolved in PBS was added to each well. After incubation for 4 hours, 0.1 ml of 10% SDS solution dissolved in 0.01N hydrochloric acid was added to each well, and the plate was incubated overnight at 37° C. and 5% CO2. Absorbance at 620 nm was measured using Titertek Multiscan Spectrophotometer (Flow, U.S.A.). The growth inhibitory activity (%) was calculated from the absorbance values in the presence and absence of the compound TAN-1813.

[3] = system: human fibrosarcoma strain HT-1080; experiment: In vivo tumor growth inhibitory test; conditions: 50 mg/kg subcutaneously daily for 4 days beginning 10 days after transplantation; tumor size 18 days after transplantation; HT-1080 in nude mice
Method: Cells of human fibrosarcoma strain HT-1080 (2×10^6 cells per mouse) were subcutaneously transplanted to nude mice. Three mice were used for each treated group. The compound TAN-1813 (50 mg/kg) was subcutaneously administered to the mice daily for 4 days beginning 10 days after the transplantation. Anti-tumor activity was evaluated by measuring tumor size 18 days after the transplantation of the cancer cells. Average tumor sizes of 3 mice in the untreated (C) and the compound TAN-1813-treated (T) group were measured, to determine the tumor growth inhibitory activity. The tumor size (mm^3) was calculated from the formula: 0.5×a×b^2 by measuring the major axis (mm) (a) and minor axis (mm) (b) with a calibrater.

[4] = Solubility; type: physicochemical

C=CC(CCCCC)C1=C(C(=O)C2C(C)C=CC3(O)CC(C(=O)O)CC(C)C23)C(=O)NC1=O (centres unmarked) [TAN-1813, 5-[2,5-dihydro-4-(1-octen-3-yl)-2,5-dioxo-1H-pyrrole-3-carbonyl]-8a-hydroxy-4,6-dimethyl-1,2,3,4,4a,5,6,8a-octahydro-2-naphthalenecarboxylic acid]
IC50 [1]: 26.2 µM
IC50 [2]: 0.4 µg/mL (≈ 0.874 µM)
tumor size ratio (T/C×100) [3]: 46%
Solubility ([4]; in methanol, ethyl acetate, chloroform, and dimethyl sulfoxide): Readily soluble
Solubility ([4]; in water, and hexane): Slightly soluble
